Test results reported in patent US11230526B1, “Cylcoalkenyl derivatives useful as agonists of the GPR120 and/or GPR40 receptors” (Janssen Pharmaceutica NV, priority 2018, dated 2022).
pEC50: −log10 of the molar value.

Tests used:
[1] = target: T1, Human GPR120 short form (Homo sapiens, UniProt Q5NUL3); experiment: Human GPR120 calcium flux assay, Procedure Calcium B (4200 cells/well); assay type: cell-based
T1 construct: expressed in transfected cells
T1 sequence (Q5NUL3 1-361): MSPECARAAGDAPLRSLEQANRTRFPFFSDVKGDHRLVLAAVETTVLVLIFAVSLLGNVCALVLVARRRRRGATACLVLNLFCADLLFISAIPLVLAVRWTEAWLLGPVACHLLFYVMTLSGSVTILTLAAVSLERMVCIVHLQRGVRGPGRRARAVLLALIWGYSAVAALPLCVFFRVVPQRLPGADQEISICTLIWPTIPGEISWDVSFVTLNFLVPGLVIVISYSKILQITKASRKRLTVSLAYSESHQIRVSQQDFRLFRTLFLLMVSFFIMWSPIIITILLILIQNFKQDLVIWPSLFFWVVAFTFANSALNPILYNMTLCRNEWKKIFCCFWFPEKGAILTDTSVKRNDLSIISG
Procedure, shortened: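 Agonist EC50 came from a four-parameter fit of RFU (Fmax−Fmin) read over 300 s on FLIPR. Cells were HEK293 stably transfected with human GPR120 (NM_001195755.1) at 4200 per well, serum-starved 1 h and loaded with Fluo-4 NW dye with probenecid before ligand addition.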

[2] = target: T2, long form of human GPR120 (Homo sapiens, UniProt Q5NUL3); experiment: Human GPR120 DiscoveRx PathHunter Beta-Arrestin assay, Procedure β-arrestin A; assay type: cell-based
T2 construct: host or cells: PathHunter CHO-K1 GPR120 β-Arrestin Cell Line
Text: Human GPR120 DiscoveRx PathHunter® Beta-Arrestin Assay Assay Principle:
The binding of an agonist (medium/long chain fatty acids or small molecule agonists) to the G-protein-coupled receptor GPR120 activates phospholipase C, leading to release of intracellular Ca^+2 through the generation of inositol 1,4,5-trisphosphate (InsP3 or IP3). GPR120 activation can also trigger intracellular signaling via recruitment of Beta-Arrestin. In the present method, agonist-induced activation of the human GPR120 receptor is monitored through the use of PathHunter® CHO-K1 GPR120 Beta-Arrestin Cell Line engineered by DiscoveRx, as detailed below. The cell lines are designed to co-express both the ProLink/Enzyme Donor (PK)-tagged GPCR and the Enzyme […] (EA)-tagged Beta-Arrestin fusion proteins. Upon GPR120 receptor stimulation/activation, the EA-tagged Beta-Arrestin portion is translocated to the tagged receptor, where the two enzyme fragments are brought within close proximity. Under these conditions, these fragments can interact and form an active Beta-gal enzyme complex through Enzyme Fragment Complementation (EFC). This active Beta-gal complex can enzymatically hydrolyse the substrate to produce a detectable light signal; therefore, activation as a function of agonist concentration can be expressed as an EC50 value to determine relative compound activities. This in vitro assay therefore serves to assess compound agonist activity of the GPR120.
In Procedure β-arrestin A, the cell used were PathHunter® CHO-K1 GPR120 β-Arrestin Cell Line, expressing the long form of human GPR120 (Genbank accession number NM_181745), with 3000 cells per well.
The selected CHO-K1 GPR120 β-Arrestin cells were cultured in Ham's F12 media supplemented with 10% fetal bovine serum (FBS), 1% Glutamine, 1×p/s, 800 μg/mL G418 and 300 μg/mL Hygromycin B (for selection). Cell stocks were maintained and grown in a sub-confluent state using standard cell culture procedures. The day before the experiment, the cells were harvested with non-enzymatic cell dissociation buffer and re-suspended in complete growth media at the desired concentration. A Corning 384-plate was then seeded with the proper number of cells in a volume of 25 μL, per well. The seeded plates were incubated overnight at 37° C.
On the day of the experiment, the Assay Buffer containing (a) HBSS with Ca^++ and Mg^++, (b) 20 mM HEPES, and (c) 0.1% BSA stabilizer (pH 7.4) was prepared. The growth medium was gently removed from the cell plates and 20 μL of Assay Buffer added to each well. The plate was then incubated at 37° C. for 60 min. Test compounds were serially diluted in Assay Buffer to desired concentrations (more particularly to one or more of the following μM concentrations: 25, 12.5, 6.25, 3.12, 1.56, 0.78, 0.39, 0.19, 0.10, 0.05, 0.02, 0.01). Five μL of compound dilution was then added to each well and the plate incubated at 37° C. for 90 min. The detection reagents were prepared according to the manufacture's instruction. Twelve μL of the detection reagents were added to each well and the plate incubated at room temperature for 60 min.
The plates were read on an EnVision instrument, using Protocol name: Luminescence, Plate type: 384 Costar, Measurement height: 3 mm, Measurement time: 1 s, Aperture: 384 Plate aperture. The % Activity relative to the positive control was calculated using the following equation:
The % Activity values were plotted versus the concentration of test compound and fitted to a sigmoidal dose-response curve with a Hill slope=1 (fixed value) using nonlinear regression with GraphPad Prism 5.0 to calculate the EC50 values. The Fitting Equation was: Y=Bottom+(Top-Bottom)/(1+10^((Log EC50−X)*HillSlope)), where X is the log of the concentration and Y is the response.

T2 sequence (Q5NUL3 1-377 isoform Q5NUL3-1): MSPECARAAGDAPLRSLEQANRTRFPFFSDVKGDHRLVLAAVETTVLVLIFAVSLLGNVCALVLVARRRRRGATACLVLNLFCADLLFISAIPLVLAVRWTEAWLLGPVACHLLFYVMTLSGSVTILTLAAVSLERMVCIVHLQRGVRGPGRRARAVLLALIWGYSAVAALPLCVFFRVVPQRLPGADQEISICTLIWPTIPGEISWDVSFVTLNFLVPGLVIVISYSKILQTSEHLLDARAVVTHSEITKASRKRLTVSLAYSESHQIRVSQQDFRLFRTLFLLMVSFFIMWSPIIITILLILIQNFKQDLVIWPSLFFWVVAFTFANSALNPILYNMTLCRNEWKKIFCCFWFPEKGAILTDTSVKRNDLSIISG
T2 sequence (P32121 whole entry partner): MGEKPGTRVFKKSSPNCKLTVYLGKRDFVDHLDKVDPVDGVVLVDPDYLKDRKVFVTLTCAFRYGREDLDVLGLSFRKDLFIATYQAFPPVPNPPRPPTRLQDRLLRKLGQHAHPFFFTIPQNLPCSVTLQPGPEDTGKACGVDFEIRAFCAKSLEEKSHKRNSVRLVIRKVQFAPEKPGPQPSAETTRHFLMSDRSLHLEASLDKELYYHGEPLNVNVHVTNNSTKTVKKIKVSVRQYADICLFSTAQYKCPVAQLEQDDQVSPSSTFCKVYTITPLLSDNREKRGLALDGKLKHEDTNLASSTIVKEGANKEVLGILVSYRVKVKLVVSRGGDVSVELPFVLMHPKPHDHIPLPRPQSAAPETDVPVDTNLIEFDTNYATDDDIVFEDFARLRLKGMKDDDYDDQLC

SMILES | pEC50 [1] | pEC50 [2]
Cc1ccc(C2=C(COc3ccc(CCC(=O)O)cc3Br)CCC2)cc1 [Compound 169, 3-[3-bromo-4-[[2-(p-tolyl)cyclopenten-1-yl]methoxy]phenyl]Propanoic Acid] | 7.31 | 7.46
Cc1c(CCC(=O)O)ccc(OCC2=C(c3ccc(Cl)c(F)c3)CC(F)(F)C2)c1C [Compound 171, 3-[4-[[2-(4-chloro-3-fluoro-phenyl)-4,4-difluoro-cyclopenten-1-yl]methoxy]-2,3-dimethyl-phenyl]Propanoic Acid] | 6.97 | 6.68
Cc1c(CCC(=O)O)ccc(OCC2=C(c3ccc(F)c(F)c3)CC(F)(F)C2)c1C [Compound 177, 3-[4-[[2-(3,4-difluorophenyl)-4,4-difluoro-cyclopenten-1-yl]methoxy]-2,3-dimethyl-phenyl]Propanoic Acid] | 7.28 | 7.14
COC1CC(COc2ccc(CCC(=O)O)c(C)c2C)=C(c2ccc(Cl)cc2)C1 (stereo not shown) [Compound 189, 3-[4-[[2-(4-chlorophenyl)-4-methoxy-cyclopenten-1-yl]methoxy]-2,3-dimethyl-phenyl]Propanoic Acid] | 7.20 | 6.61
Cc1cc(CCC(=O)O)ccc1OCC1=C(c2cncs2)CC(F)(F)C1 [Compound 190, 3-[4-[(4,4-difluoro-2-thiazol-5-yl-cyclopenten-1-yl)methoxy]-3-methyl-phenyl]Propanoic Acid] | 6.35 | 5.98
Cc1c(CCC(=O)O)ccc(OCC2=C(c3cccc(F)c3)CC(F)(F)C2)c1C [Compound 192, 3-[4-[[4,4-difluoro-2-(3-fluorophenyl)cyclopenten-1-yl]methoxy]-2,3-dimethyl-phenyl]Propanoic Acid] | 7.21 | 6.49
Cc1c(CCC(=O)O)ccc(OCC2=C(c3ccccc3)CC(F)(F)C2)c1C [Compound 194, 3-[4-[(4,4-difluoro-2-phenyl-cyclopenten-1-yl)methoxy]-2,3-dimethyl-phenyl]Propanoic Acid] | 7.44 | 6.79
Cc1c(CCC(=O)O)ccc(OCC2=C(c3ccc(Cl)cc3)CC(Cl)C2)c1C (stereo not shown) [Compound 195, 3-[4-[[4-chloro-2-(4-chlorophenyl)cyclopenten-1-yl]methoxy]-2,3-dimethyl-phenyl]Propanoic Acid] | 6.64 | 6.33
Cc1c(CCC(=O)O)ccc(OCC2=C(c3ccc(Cl)cc3)CC(C#N)C2)c1C (stereo not shown) [Compound 196, 3-[4-[[2-(4-chlorophenyl)-4-cyano-cyclopenten-1-yl]methoxy]-2,3-dimethyl-phenyl]Propanoic Acid] | 6.13 | 6.00
Cc1c(CCC(=O)O)ccc(OCC2=C(c3cccs3)CC(F)(F)C2)c1C [Compound 200, 3-[4-[[4,4-difluoro-2-(2-thienyl)cyclopenten-1-yl]methoxy]-2,3-dimethyl-phenyl]Propanoic Acid] | 6.74 | 6.36
O=C(O)CCc1cc(F)c(OCC2=C(c3cccs3)CC(F)(F)C2)c(F)c1 [Compound 201, 3-[4-[[4,4-difluoro-2-(2-thienyl)cyclopenten-1-yl]methoxy]-3,5-difluoro-phenyl]Propanoic Acid] | 6.10 | 6.39
Cc1cc(CCC(=O)O)ccc1OCC1=C(c2cccs2)CC(F)(F)C1 [Compound 202, 3-[4-[[4,4-difluoro-2-(2-thienyl)cyclopenten-1-yl]methoxy]-3-methyl-phenyl]Propanoic Acid] | 6.94 | 6.52
Cc1c(CCC(=O)O)ccc(OCC2=C(c3ccc(Cl)c(F)c3)CCC(F)(F)C2)c1C [Compound 526, 3-[4-[[2-(4-chloro-3-fluoro-phenyl)-5,5-difluoro-cyclohexen-1-yl]methoxy]-2,3-dimethyl-phenyl]Propanoic Acid] | 6.06 | 5.42
Cc1cc(CCC(=O)O)ccc1OCC1=C(c2ccc(Cl)c(F)c2)CCC(F)(F)C1 [Compound 527, 3-[4-[[2-(4-chloro-3-fluoro-phenyl)-5,5-difluoro-cyclohexen-1-yl]methoxy]-3-methyl-phenyl]Propanoic Acid] | 6.05 | 6.30
Cc1c(CCC(=O)O)ccc(OCC2=C(c3ccc(F)c(F)c3)CCC(F)(F)C2)c1C [Compound 531, 3-[4-[[2-(3,4-difluorophenyl)-5,5-difluoro-cyclohexen-1-yl]methoxy]-2,3-dimethyl-phenyl]Propanoic Acid] | 6.93 | 6.54
Cc1cc(CCC(=O)O)ccc1OCC1=C(c2ccccc2)CCC(F)(F)C1 [Compound 538, 3-[4-[(5,5-difluoro-2-phenyl-cyclohexen-1-yl)methoxy]-3-methyl-phenyl]Propanoic Acid] | 7.05 | 6.80
COC1CCC(c2ccc(Cl)cc2)=C(COc2ccc(CCC(=O)O)c(C)c2C)C1 (stereo not shown) [Compound 540, 3-[4-[[2-(4-chlorophenyl)-5-methoxy-cyclohexen-1-yl]methoxy]-2,3-dimethyl-phenyl]Propanoic Acid] | 6.82 | 6.65
Cc1c(CCC(=O)O)ccc(OCC2=C(c3cnn(C)c3)CCC(F)(F)C2)c1C [Compound 545, 3-[4-[[5,5-difluoro-2-(1-methylpyrazol-4-yl)cyclohexen-1-yl]methoxy]-2,3-dimethyl-phenyl]Propanoic Acid] | 6.01 | 5.78
Cc1c(CCC(=O)O)ccc(OCC2=C(c3cncs3)CCC(F)(F)C2)c1C [Compound 547, 3-[4-[(5,5-difluoro-2-thiazol-5-yl-cyclohexen-1-yl)methoxy]-2,3-dimethyl-phenyl]Propanoic Acid] | 6.41 | 5.74
Cc1c(CCC(=O)O)ccc(OCC2=C(c3ccco3)CCC(F)(F)C2)c1C [Compound 552, 3-[4-[[5,5-difluoro-2-(2-furyl)cyclohexen-1-yl]methoxy]-2,3-dimethyl-phenyl]Propanoic Acid] | 6.81 | 6.32
Cc1ncc(C2=C(COc3c(F)cc(CCC(=O)O)cc3F)CC(F)(F)CC2)s1 [Compound 554, 3-[4-[[5,5-difluoro-2-(2-methylthiazol-5-yl)cyclohexen-1-yl]methoxy]-3,5-difluoro-phenyl]Propanoic Acid] | 6.14 | 5.99
Cc1cc(CCC(=O)O)ccc1OCC1=C(c2ccco2)CCC(F)(F)C1 [Compound 555, 3-[4-[[5,5-difluoro-2-(2-furyl)cyclohexen-1-yl]methoxy]-3-methyl-phenyl]Propanoic Acid] | 6.79 | 6.45
Cc1c(CCC(=O)O)ccc(OCC2=C(c3cccs3)CCC(F)(F)C2)c1C [Compound 557, 3-[4-[[5,5-difluoro-2-(2-thienyl)cyclohexen-1-yl]methoxy]-2,3-dimethyl-phenyl]Propanoic Acid] | 6.83 | 6.52
